What follows are compounds tested on Prorhinotermes (assay: Juvenilizing activity against termite Prorhinotermes simplex at 0.5 mg m/L).
Type: functional
`CCCC(=O)O[C@@H]1CCCC[C@H]1Cc1ccc(OCCNC(=O)OCC)cc1` was tested, and the Activity was 65%.
Work on `CCCC(=O)O[C@H]1CCCC[C@H]1Cc1ccc(OCCNC(=O)OCC)cc1` yielded an Activity of 65%.
In the case of `CCCC(=O)O[C@H]1CCCC[C@@H]1Cc1ccc(OCCNC(=O)OCC)cc1`, the Activity is reported as 65%.
Compound `CCCC(=O)O[C@@H]1CCCC[C@@H]1Cc1ccc(OCCNC(=O)OCC)cc1` has an Activity of 65%.
